Entries after “also recorded” stand apart in the source; their conditions may differ.
Columns and labels:
NK cell progenitors = experiment: Differentiation of cord blood CD34+-derived NK cell progenitors to CD56+ NK cells (culture days 14-28), flow cytometry and cell counts; format: cell-based, Human
Description: Human CB samples were obtained from Bloodworks NW (Seattle, WA) and CD34^+ cells were isolated using EasySep™ Human Cord Blood CD34 Positive Selection Kit II (STEMCELL Technologies, Catalogue #17896). Obtained in this way the purity of CD34^+ cells is typically higher than 90%.
The wells of a 24-well plate were coated with StemSpan™ Lymphoid Differentiation Coating Supplement (STEMCELL Technologies, Catalogue #09925) and 5000 CD34^+ cells were plated per well. The CD34^+ cells were cultured for up to 14 days in StemSpan™ SFEM II (STEMCELL Technologies, Catalogue #09605, 09655) supplemented with Lymphoid Progenitor Expansion Supplement (STEMCELL Technologies, Catalogue #09915) with media changes every 3-4 days.
After 14 days in culture, CD34^+ cell-derived NK cell progenitors were harvested. 50,000 NK cell progenitors were plated per well of an uncoated tissue culture 24-well plate. The plated NK cell progenitors were cultured for up to two weeks in NK Cell Differentiation medium (i.e StemSpan™ SFEM II (STEMCELL Technologies, Catalog # 09605, 09655) supplemented with NK Cell Differentiation Supplement (STEMCELL Technologies, Catalogue #09950), and cultured for an additional two weeks with media changes every 3-4 days. UM729 or UM171 was added to supplemented NK Cell Differentiation Medium on days 14-28. On day 28 cells were harvested for analysis or downstream applications.
Harvested cells were stained and measured by flow cytometry for expression of the NK cell lineage marker CD56. Dead cells were excluded by light scatter profile and 7-AAD or DRAQ7 staining. The results in FIGS. 1 and 2 at condition “0” (plotted on the x-axis) indicate the frequency and yield of CD56^+ NK cells that result from experiments that follows the protocol described above but in the absence of UM171 or UM729. Cell counts were obtained using the NucleoCounter NC250. Yield was calculated by dividing the resulting cell number by the number of cells initially seeded. Yields of specific cell types were obtained by multiplying total yield by cell frequency.
Cells were cultured as described in Example 1, with the exception that the up to two week culture of NK cell progenitors (i.e. culture days 14-28) in NK Cell Differentiation medium occurred in the presence or absence of UM171 or UM729.
The effects of UM171 and UM729 were tested across a range of concentrations: 0 nM, 50 nM, 100 nM, 150 nM and 200 nM for UM171; and 0 μM, 0.25 μM, 0.5 μM, 1 μM, and 2 μM for UM729.
CD34^+ CB cells were isolated and cultured as described in Example 1 up to the day 14 time point. Day 14 NK cell progenitors were further cultured in NK Cell Differentiation medium, essentially as described in Example 1, except in the absence of an added pyrimidoindole compound but in the presence or absence of 5 μM CH223191.

[1] = reported; cited from earlier work
[2] = test system: differentiated CD56+ NK cells; experiment: Flow cytometry of NK cell, maturity and T cell markers on differentiated CD56+ NK cells at day 28; format: cell-based, Human; settings: 100 nM UM171, day 28
Description: CD56^+ NK cells were differentiated as described in Examples 1 and 2 in the presence of 1 μM UM729 and analyzed on day 28 by flow cytometry for the expression of known NK cell markers. Cells were stained with fluorescence-conjugated antibodies against indicated NK cell markers for 15 min at 4° C. Non-specific binding was blocked using FcR blocker and 5% human or rat serum. Dead cells were excluded by light scatter profile and 7-AAD or DRAQ7 staining. Prepared samples were analyzed by flow cytometry.
CD56^+ NK cells were differentiated as described in Examples 1 and 2 in the presence of 1 μM UM729 and analyzed on day 28 by flow cytometry for the expression of known NK cell markers. The cells were stained for the markers described in this Example essentially as described in Example 3. Staining for KIR molecules was performed using a combination of two clones for the antibody, 180704 and HP-MA4, as each recognizes a distinct subset of KIR molecules. Dead cells were excluded by light scatter profile and 7-AAD or DRAQ7 staining.
Production of IFNγ by the differentiated CD56^+ NK cells was also measured. For IFNγ intracellular staining, differentiated CD56^+ NK Cells were stimulated with PMA/Ionomycin for 2 hours. Brefeldin A was added and the cells were incubated for another 2 hours. The cells were harvested and stained for CD56 and Zombie NIR viability dye then fixed, permeabilized and stained for intracellular IFNγ.
CD56^+ NK cells were differentiated as described in Examples 1 and 2 in the presence of pyrimidoindole compounds and analyzed on day 28 by flow cytometry for the expression of a T cell marker. The analyzed cells were stained for CD3 essentially as described in Example 3. Dead cells were excluded by light scatter profile and 7-AAD or DRAQ7 staining.

[3] = test system: Cord blood-derived CD34+ HSPC cells; experiment: UM171 added at different times of the day 0-28 NK differentiation culture, CD56 expression at day 28; format: cell-based, Human; settings: analyzed at day 28
Description: (§1) […] CB cells were isolated and cultured as described in Example 1. As in Example 1 and 2 the different media were used in the day 0-14 and the day 14-28 cultures, except the day 0-14 culture medium was further supplemented with 100 nM UM171 to investigate its effect on the differentiation of CD4^+ HSPC to NK cells.
(§2) In these experiments UM171 was added to the cultures at different time points: days 0-14 (+/−); days 14-28 (−/+); or days 0-28 (+/+). Cultures without UM171 were also set up (−/−). Cells were either analyzed at day 28 for CD56 expression (FIG. 8) or at day 14 for CD7 and CD5 expression (FIG. 9).

CD34+ HSPC = experiment: Differentiation of CD34+ HSPC into CD7+CD5+ NK cell progenitors (days 0-14), CD7 and CD5 expression at day 14; format: cell-based, Human; settings: day 0-14 culture medium supplemented with 100 nM UM171, day 14
Description: as §1, §2

[4] = 5 μM CH223191, no added pyrimidoindole compound, day 14 NK cell progenitors
[5] = 100 nM UM171 between days 0-14 (+/−)
[6] = 100 nM UM171 between days 14-28 (−/+)
[7] = 100 nM UM171, normalized to STD cultures, n=15
[8] = tested 0, 50, 100, 150, 200 nM, days 14-28

Compound	CD56+ NK cell frequency compared to absence of CH223191 (NK cell progenitors; [4])	CD56+ NK cell yield compared to absence of CH223191 (NK cell progenitors; [4])	Potency relative to UM729 [1]	Expression of CD3 among differentiated cells ([2]; cord blood sample of a first donor)	Expression of CD3 among differentiated cells ([2]; cord blood sample of a second donor)	CD56+ cell frequency compared to cultures lacking UM171 on days 0-14 (−/−) [3, 5]	CD56+ cell yield compared to cultures lacking UM171 on days 0-14 (−/−) [3, 5]	NK cell frequency compared to cultures lacking UM171 (−/−) [3, 6]	NK cell yield compared to cultures lacking UM171 (−/−) [3, 6]	Effect of inclusion of UM171 during days 14-28 on CD56+ NK cell frequency and yield in the (+/+) condition ([3]; 100 nM UM171 days 0-28 (+/+))	Frequency of CD56+ NK cells compared to cultures lacking UM171 (NK cell progenitors; 100 nM UM171, 14 days culture of NK cell progenitors, paired t-test p=0.013)	Increase of average frequency of NK cells compared to culture conditions not including a pyrimidoindole compound (NK cell progenitors; [7])	Increase of average yield of NK cells compared to culture conditions not including a pyrimidoindole compound (NK cell progenitors; [7]) [fold]	Concentration at which frequency of CD56+ NK cells appeared to be highest (NK cell progenitors; [8]) [nM]	Concentration at which yield of CD56+ NK cells appeared to be highest (NK cell progenitors; [8]) [nM]	Frequency of CD7+CD5+ NK cell progenitors compared to cultures not supplemented with UM171 (CD34+ HSPC)	Yield of CD7+CD5+ NK cell progenitors compared to cultures not supplemented with UM171 (CD34+ HSPC)
Cc1ccccc1N=Nc1ccc(NC(=O)c2ccnn2C)c(C)c1 [CH223191]	decreased	decreased	–	–	–	–	–	–	–	–	–	–	–	–	–	–	–
Cn1nnc(-c2ccc3c(c2)[nH]c2nc(Cc4ccccc4)nc(N[C@H]4CC[C@H](N)CC4)c23)n1 [UM171, (1r,4r)-N^1-(2-benzyl-7-(2-methyl-2H-tetrazol-5-yl)-9H-pyrimido[4,5-13]indol-4-yl)cyclohexane-1,4-diamine]	–	–	approximately 10 ×	virtually absent; also recorded: do not express CD3	virtually absent; also recorded: do not express CD3	lower	lower	increase	increase	can compensate for the effects of this compound on day 0-14 cultures	increased significantly	~ 30%	2	100	100	clear reduction	clear reduction

Source: patent publication US12723233B2, “Media and methods for differentiating natural killer cells” (STEMCELL Technologies Canada Inc., priority 2018, dated 2026)
